These results are taken from US20080194701A1, “Bifunctional Enzyme with Y-Glutamylcysteine Synthetase and Glutathione Synthetase Activity and Uses Thereof” (priority 2004, published 2008).

Structures are written as SMILES. Read-outs that look alike come from different tables or passages of the source. A value given as a limit tells only on which side of the number the result lay.

In one assay the target is T1, S. agalactiae γ-GCS-GS (Streptococcus agalactiae serotype V, UniProt Q8DXM9).
T1 sequence (Q8DXM9 1-750): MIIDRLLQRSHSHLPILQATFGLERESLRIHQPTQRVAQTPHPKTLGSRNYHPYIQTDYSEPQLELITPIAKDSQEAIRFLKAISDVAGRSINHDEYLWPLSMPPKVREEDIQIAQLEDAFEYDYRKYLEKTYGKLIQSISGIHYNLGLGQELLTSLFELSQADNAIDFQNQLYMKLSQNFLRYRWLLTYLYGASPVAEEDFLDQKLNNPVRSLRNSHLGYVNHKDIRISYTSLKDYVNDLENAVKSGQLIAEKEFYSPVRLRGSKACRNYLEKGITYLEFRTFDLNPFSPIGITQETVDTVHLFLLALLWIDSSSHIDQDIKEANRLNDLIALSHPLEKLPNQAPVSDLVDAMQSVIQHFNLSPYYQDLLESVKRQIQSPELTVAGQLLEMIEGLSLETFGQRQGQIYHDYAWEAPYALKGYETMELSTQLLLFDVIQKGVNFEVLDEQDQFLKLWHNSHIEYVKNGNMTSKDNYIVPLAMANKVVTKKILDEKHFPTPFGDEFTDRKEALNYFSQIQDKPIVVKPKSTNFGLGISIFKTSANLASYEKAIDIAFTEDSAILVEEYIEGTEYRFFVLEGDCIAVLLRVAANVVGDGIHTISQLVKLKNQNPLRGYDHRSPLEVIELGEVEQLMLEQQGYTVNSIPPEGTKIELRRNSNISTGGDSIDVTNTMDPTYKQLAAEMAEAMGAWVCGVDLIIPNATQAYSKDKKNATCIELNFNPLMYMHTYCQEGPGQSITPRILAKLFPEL
As to the kind of experiment: γ-GCS activity assay based on ADP formation, S. agalactiae γ-GCS-GS. The settings on record: for Vmax: unit = 1 μmol product per hour. On the set-up: corresponded to full-length S. agalactiae γ-GCS-GS with an N-terminal His8-tag; made in house; host or cells: E. coli SG13009 with pQE30-gshAB plus pREP4 or pRARE. It counts as biochemical. On the procedure: In Table 1, a unit was defined as the amount of enzyme activity required to catalyze the formation of 1 μmol of product per hour. Specific activity was shown as units per mg protein. Activity was determined at 37° C. based on ADP formation in reaction mixtures containing L-glutamate and L-cysteine and using pyruvate kinase and lactate dehydrogenase to couple ADP formation to NADH oxidation, which was monitored at 340 nm.
Exp. Purif. 13, 268-276 (1998).
At set time points ranging from one to 30 minutes, 5 μl aliquots were removed and assayed for residual enzyme activity using the standard γ-GCS assay based on ADP formation.

Another assay has as its target E. coli γ-GCS (Escherichia coli, UniProt P0A6W9). Conditions: cited from earlier work; for Vmax: unit = 1 μmol product per hour; for Km: substrate Km.
The target of the next assay is T2, Human γ-GCS (Homo sapiens, UniProt P48506).
T2 sequence (P48506 1-637): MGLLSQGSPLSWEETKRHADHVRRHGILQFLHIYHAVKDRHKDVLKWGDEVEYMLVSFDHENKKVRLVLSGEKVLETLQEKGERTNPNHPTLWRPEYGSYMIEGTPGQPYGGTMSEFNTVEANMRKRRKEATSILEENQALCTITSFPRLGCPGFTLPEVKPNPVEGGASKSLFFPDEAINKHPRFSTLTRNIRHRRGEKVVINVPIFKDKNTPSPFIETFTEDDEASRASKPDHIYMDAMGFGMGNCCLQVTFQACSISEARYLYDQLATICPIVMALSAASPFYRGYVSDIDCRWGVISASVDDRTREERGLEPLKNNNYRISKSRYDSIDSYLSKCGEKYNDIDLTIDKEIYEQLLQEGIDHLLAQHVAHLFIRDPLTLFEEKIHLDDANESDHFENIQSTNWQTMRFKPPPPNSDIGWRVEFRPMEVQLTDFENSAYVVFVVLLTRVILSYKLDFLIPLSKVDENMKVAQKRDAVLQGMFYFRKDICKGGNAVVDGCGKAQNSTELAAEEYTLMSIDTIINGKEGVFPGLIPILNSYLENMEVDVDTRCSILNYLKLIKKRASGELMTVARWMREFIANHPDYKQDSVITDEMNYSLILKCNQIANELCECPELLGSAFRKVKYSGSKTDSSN
T2 sequence (P48507 1-274 partner): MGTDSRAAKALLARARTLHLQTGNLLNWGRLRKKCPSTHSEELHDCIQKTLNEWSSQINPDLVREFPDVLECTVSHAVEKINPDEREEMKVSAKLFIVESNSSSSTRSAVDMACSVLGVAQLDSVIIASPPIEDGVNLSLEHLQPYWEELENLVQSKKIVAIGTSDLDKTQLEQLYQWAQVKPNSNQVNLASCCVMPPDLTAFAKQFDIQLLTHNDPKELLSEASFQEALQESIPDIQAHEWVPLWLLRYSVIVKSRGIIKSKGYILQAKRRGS
Conditions: cited from earlier work; for Km: substrate Km; for Vmax: unit = 1 μmol product per hour.

The target of another assay is T3, Human γ-GCSc (Homo sapiens, UniProt P48506).
T3 sequence (P48506 1-637): T2 sequence (P48506 1-637)
Conditions: catalytic subunit only, cited from earlier work; for Km: substrate Km.

Another assay concerns the target E. faecalis γ-GCS-GS (Enterococcus faecalis, UniProt Q82ZG8). The experiment in a line: γ-GCS activity of E. faecalis γ-GCS-GS. Conditions: substrate Km, γ-GCS activity.
The next assay addresses S. mutans γ-GCS-GS (Streptococcus mutans serotype c, UniProt Q8DW15). The experiment in a line: γ-GCS activity of S. mutans γ-GCS-GS. Conditions: substrate Km, γ-GCS activity. An excerpt: 3′ and 5′ […] 3′ and introduced unique Bgl II and Hind III sites (underlined), respectively.
The target of the next assay is E. coli GS (Escherichia coli, UniProt P04425). Conditions: cited from earlier work; for Km: substrate Km.
For another assay, the target named is T4, Human GS (Homo sapiens, UniProt P48637).
T4 sequence (P48637 1-474): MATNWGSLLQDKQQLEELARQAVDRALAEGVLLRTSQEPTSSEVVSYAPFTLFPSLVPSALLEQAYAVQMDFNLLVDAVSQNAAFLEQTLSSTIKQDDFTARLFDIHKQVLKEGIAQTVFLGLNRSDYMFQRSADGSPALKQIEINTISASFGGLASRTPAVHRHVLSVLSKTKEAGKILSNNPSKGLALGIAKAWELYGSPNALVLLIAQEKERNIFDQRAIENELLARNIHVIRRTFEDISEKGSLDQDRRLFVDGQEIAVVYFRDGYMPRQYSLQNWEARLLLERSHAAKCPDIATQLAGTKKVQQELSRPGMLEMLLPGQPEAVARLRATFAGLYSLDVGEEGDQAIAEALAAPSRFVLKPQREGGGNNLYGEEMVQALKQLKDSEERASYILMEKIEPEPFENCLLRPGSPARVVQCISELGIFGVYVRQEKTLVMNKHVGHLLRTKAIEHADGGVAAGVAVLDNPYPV
The settings on record: cited from earlier work.

Another assay deals with T5, Rat GS (Rattus norvegicus, UniProt P46413).
T5 sequence (P46413 1-474): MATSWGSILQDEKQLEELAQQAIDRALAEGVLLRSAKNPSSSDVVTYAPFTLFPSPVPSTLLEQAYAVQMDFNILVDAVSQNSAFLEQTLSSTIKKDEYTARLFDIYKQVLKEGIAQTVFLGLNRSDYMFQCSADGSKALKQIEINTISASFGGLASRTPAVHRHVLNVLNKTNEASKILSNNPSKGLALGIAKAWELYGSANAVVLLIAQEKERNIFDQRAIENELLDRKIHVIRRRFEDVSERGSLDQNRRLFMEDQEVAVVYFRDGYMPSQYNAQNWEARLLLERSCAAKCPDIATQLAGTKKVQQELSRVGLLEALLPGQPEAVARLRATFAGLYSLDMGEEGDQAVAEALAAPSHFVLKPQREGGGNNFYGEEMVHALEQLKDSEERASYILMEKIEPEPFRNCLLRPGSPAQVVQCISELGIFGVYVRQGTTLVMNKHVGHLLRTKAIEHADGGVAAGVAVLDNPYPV
The settings on record: cited from earlier work.

The mark [1] stands for this setting: MSO also pre-incubated with MgATP, absence of L-glutamate.

Chain of E. coli γ-GCS (P0A6W9 whole entry): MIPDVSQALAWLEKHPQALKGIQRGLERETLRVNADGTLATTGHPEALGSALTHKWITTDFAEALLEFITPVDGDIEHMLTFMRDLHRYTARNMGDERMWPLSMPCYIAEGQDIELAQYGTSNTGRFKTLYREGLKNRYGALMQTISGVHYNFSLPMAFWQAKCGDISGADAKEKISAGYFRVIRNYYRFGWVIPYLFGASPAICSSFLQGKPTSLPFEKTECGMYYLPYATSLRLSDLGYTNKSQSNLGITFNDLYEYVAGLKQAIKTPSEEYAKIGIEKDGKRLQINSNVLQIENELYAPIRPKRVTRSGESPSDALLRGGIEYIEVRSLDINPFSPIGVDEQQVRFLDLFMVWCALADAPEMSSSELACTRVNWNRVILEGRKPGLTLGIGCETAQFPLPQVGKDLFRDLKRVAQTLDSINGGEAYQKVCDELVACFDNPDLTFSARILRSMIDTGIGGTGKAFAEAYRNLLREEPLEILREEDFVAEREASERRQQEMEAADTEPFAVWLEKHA
Chain of E. coli GS (P04425 whole entry): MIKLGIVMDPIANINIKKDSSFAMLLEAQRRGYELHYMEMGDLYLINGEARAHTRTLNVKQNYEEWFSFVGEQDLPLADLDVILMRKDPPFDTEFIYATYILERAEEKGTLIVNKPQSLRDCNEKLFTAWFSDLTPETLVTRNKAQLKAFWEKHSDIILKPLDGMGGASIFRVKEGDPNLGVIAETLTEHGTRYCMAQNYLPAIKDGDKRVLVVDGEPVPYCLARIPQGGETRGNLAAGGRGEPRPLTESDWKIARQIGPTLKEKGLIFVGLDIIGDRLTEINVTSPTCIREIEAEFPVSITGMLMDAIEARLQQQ
Chain of S. mutans γ-GCS-GS (Q8DW15 whole entry): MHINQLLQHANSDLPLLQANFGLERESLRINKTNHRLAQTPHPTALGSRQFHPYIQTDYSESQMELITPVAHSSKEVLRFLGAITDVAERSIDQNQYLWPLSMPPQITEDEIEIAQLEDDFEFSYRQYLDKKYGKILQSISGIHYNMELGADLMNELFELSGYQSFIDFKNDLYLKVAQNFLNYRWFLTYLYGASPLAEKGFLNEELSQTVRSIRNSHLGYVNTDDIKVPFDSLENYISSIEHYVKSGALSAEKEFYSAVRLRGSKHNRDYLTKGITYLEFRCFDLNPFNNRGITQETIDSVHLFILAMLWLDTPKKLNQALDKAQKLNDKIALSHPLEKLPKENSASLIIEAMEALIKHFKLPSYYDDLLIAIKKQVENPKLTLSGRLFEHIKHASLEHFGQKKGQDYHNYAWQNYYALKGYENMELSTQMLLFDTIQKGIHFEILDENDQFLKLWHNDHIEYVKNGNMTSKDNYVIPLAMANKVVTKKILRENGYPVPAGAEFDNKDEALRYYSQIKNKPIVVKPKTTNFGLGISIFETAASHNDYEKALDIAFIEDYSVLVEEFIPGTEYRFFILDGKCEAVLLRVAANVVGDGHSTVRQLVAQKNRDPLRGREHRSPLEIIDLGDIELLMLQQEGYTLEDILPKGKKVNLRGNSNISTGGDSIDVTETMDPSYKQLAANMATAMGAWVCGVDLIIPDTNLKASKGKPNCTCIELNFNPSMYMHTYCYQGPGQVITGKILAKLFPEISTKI
Chain of E. faecalis γ-GCS-GS (Q82ZG8 whole entry): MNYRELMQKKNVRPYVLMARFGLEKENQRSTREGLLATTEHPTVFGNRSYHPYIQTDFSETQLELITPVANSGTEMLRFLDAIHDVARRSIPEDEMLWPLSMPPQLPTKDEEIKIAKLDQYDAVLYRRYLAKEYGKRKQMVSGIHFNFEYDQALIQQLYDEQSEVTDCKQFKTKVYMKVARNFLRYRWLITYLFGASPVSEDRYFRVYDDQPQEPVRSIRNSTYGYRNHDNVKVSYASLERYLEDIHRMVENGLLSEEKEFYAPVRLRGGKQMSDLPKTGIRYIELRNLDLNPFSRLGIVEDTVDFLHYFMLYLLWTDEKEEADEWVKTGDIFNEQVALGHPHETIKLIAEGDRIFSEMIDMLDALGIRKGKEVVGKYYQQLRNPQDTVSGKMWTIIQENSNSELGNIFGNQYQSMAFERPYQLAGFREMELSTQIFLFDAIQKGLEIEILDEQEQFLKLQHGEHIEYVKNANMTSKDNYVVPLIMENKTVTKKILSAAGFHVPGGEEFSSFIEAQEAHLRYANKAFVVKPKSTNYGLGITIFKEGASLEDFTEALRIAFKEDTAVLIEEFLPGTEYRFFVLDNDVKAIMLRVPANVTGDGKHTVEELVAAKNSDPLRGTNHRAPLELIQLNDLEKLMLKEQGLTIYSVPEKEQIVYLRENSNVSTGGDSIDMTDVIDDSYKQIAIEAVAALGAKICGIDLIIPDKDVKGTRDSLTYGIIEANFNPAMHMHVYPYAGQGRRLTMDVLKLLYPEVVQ

As to `CS(=N)(=O)CC[C@H](N)C(=O)O` (mixture of isomers) [L-Methionine-S,R-sulfoximine], the Ki at S. agalactiae γ-GCS-GS is over 100 mM. Also, the “inhibition of the γ-GCS activity (in words)” value (shortened to “inhibition … (in words)”) on S. agalactiae γ-GCS-GS (setting [1]) is “no significant inhibition”.

For `NC(CCP(=O)(O)O)C(=O)O` (racemic) [D,L-2-amino-4-phosphonobutyric acid], on S. agalactiae γ-GCS-GS, the Ki amounted to 13 mM. Further, the “inhibition … (in words)” value at S. agalactiae γ-GCS-GS (setting [1]) is on record as “moderately good inhibitors”.

Take `NC(CCCP(=O)(O)O)C(=O)O` (racemic) [D,L-2-amino-5-phosphonovaleric acid]: at S. agalactiae γ-GCS-GS, the Ki is over 100 mM and the “inhibition … (in words)” value is “not effective”.

As for `NCCSSCCN` [Cystamine, reference compound], the Ki entry is “no inhibition” on E. coli γ-GCS; 2 mM at Human γ-GCS (read-out: Ki); “no inhibition” at S. agalactiae γ-GCS-GS (inhibition of γ-GCS activity, initial reversible binding). Also, the “inhibition of γ-GCS activity” value at S. agalactiae γ-GCS-GS is recorded as “no reproducibly measurable inhibition”.

Turning to `N[C@@H](CS)C(=O)O` [L-cysteine], the Vmax was 3590 ± 200 units/mg on E. coli γ-GCS, about 1500 units/mg on Human γ-GCS and about 1250 units/mg on Human γ-GCSc. The figures for the Km at Human γ-GCS and at Human γ-GCSc were 100 ± 20 µM and 130 ± 10 µM, respectively.

Take `N[C@@H](CCC(=O)O)C(=O)O` [L-glutamate]: the Km at E. coli γ-GCS was 1900 ± 200 µM; on Human γ-GCS it was 1900 ± 200 µM; at E. faecalis γ-GCS-GS, 79000 ± 14000 µM; at Human γ-GCSc it was 3200 ± 100 µM; on S. agalactiae γ-GCS-GS, 23000 ± 2000 µM; on S. mutans γ-GCS-GS, 17000 ± 1000 µM. Further, the Vmax at E. coli γ-GCS is given as 3170 ± 125 units/mg; on Human γ-GCS, about 1500 units/mg; on Human γ-GCSc, about 1250 units/mg; at S. agalactiae γ-GCS-GS (γ-GCS activity), 1341 ± 145 units/mg.

For the compound `CC[C@H](N)C(=O)O` [L-α-aminobutyrate], the Km at E. coli γ-GCS was 3900 ± 400 µM; on Human γ-GCS, 1300 µM; on Human γ-GCSc, 1700 µM; at S. agalactiae γ-GCS-GS (substrate Km, γ-GCS activity), 8300 ± 1000 µM. Further, the Vmax on E. coli γ-GCS was 2970 ± 120 units/mg; at Human γ-GCS it was about 1500 units/mg; at Human γ-GCSc, about 1250 units/mg; on S. agalactiae γ-GCS-GS (γ-GCS activity), 1148 ± 73 units/mg.

As for `N[C@@H](CCC(=O)N[C@@H](CS)C(=O)O)C(=O)O` [L-γ-glutamyl-L-cysteine], on E. coli GS, the Vmax is listed as 650 units/mg and the Km is 2600 µM.

Turning to `CP(=O)(O)CCC(N)C(=O)O.N` (stereo not shown) [glufosinate (ammonium salt), glufosinate ammonium], the “inhibition … (in words)” value on S. agalactiae γ-GCS-GS (setting [1]) was “moderately good inhibitors”. Moreover, the Ki on S. agalactiae γ-GCS-GS (inhibition of γ-GCS activity, initial reversible binding, read-out: Ki) worked out at 29 mM.

Take `NCC(=O)O` [glycine]: the figures for the Vmax at Human GS, at Rat GS and on E. coli GS were 361 ± 84 units/mg, 678 units/mg and 650 units/mg, respectively. For the same compound, the Km on Human GS (substrate Km) is 1300 ± 300 µM; on Rat GS (substrate Km), 913 µM; on E. coli GS it was 2000 µM.

By Ki is commonly meant the dissociation constant of the complex between target and ligand, obtained from inhibition or displacement. As a reminder, the Km is the substrate concentration at which the rate is half of its maximum.
